Measured values published in publication PMC6261293 (European journal of medicinal chemistry, 2018).
In brackets after ≈: the same amount, converted by molar mass.

What was measured:
[1] = test system: NF-κB/AP-1 reporter activity in THP-1Blue cells; assay: LPS-induced NF-κB/AP-1 alkaline phosphatase reporter assay; assay type: cell-based, human; conditions: for inhibition of LPS-induced NF-κB/AP-1 activity: concentrations up to 50 µM
[2] = test system: IL-6 production by MonoMac-6 cells; assay: LPS-induced IL-6 production; assay type: cell-based, human; conditions: for IL-6 IC50: MonoMac-6 cells, 250 ng/ml LPS, 24 h, N.A. = no inhibition at concentrations <40 µM; for inhibition of LPS-induced IL-6 production: concentrations up to 50 µM
JNK3 = JNK3 (Homo sapiens, UniProt P53779); assay: KINOMEscan competition binding, JNK3; conditions: N.A. = no inhibition at concentrations <40 µM
Chain of JNK3 (P53779 whole entry): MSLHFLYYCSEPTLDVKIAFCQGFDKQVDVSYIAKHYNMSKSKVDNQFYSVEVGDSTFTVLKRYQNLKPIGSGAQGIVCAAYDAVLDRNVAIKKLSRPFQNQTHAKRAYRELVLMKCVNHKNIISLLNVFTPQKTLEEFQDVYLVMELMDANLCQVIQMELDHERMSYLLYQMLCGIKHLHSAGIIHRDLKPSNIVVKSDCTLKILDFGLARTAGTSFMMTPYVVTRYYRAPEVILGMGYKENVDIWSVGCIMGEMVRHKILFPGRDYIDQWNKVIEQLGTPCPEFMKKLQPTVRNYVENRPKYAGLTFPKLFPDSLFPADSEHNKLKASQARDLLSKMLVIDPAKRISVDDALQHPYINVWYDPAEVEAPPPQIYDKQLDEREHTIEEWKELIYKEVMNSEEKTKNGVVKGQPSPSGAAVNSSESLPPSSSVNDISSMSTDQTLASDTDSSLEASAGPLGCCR

JNK2 = JNK2 (Homo sapiens, UniProt P45984); assay: KINOMEscan competition binding, JNK2; conditions: N.A. = no inhibition at concentrations <40 µM
Chain of JNK2 (P45984 whole entry): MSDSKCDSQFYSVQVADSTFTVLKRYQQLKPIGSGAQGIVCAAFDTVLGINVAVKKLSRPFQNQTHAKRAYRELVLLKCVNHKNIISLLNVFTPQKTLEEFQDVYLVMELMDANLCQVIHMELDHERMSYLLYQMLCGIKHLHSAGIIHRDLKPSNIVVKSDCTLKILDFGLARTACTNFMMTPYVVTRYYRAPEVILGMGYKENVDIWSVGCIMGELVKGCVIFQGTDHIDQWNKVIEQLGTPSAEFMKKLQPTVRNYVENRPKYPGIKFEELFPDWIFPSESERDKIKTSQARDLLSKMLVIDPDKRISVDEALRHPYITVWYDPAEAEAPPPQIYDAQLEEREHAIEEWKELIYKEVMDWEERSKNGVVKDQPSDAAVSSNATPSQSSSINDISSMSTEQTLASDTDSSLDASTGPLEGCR

TRKA = TRKA (Homo sapiens, UniProt P04629); conditions: ref [29], [30]; cited from earlier work
Chain of TRKA (P04629 33-796): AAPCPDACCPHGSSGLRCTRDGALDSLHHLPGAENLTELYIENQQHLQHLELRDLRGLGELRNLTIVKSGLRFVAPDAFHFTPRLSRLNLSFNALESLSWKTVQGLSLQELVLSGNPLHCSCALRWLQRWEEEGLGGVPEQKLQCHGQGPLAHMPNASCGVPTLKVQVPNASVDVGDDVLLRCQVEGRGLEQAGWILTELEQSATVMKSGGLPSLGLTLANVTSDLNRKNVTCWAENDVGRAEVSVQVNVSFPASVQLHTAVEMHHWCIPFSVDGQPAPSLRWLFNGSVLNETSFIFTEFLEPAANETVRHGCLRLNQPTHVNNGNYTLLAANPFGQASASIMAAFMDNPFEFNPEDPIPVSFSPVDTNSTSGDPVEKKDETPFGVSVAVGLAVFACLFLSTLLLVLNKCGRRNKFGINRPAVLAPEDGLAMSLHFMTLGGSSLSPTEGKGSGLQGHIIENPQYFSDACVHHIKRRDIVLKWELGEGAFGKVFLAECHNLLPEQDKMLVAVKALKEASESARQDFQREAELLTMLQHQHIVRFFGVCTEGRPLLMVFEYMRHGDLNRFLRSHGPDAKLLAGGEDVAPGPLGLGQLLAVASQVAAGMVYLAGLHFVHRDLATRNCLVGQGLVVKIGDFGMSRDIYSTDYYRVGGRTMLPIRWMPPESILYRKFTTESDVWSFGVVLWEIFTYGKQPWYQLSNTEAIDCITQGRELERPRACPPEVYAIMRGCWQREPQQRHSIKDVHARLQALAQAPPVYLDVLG

Solubility in DMSO = assay type: physicochemical; conditions: organic solvent or mixture
[3] = test system: c-Jun phosphorylation in MonoMac-6 cells; assay: c-Jun; assay type: cell-based, human; conditions: 30 min pretreatment, LPS 250 ng/ml 30 min
[4] = THP-1Blue cells, 250 ng/ml LPS, 24 h, N.A. = no inhibition at concentrations <40 µM

## [Na+].[O-]/N=C1/c2ccccc2-c2nc3c(Cl)cc(Cl)cc3nc21 [6b, 6,8-Dichloro-11H-indeno[2,3-b]quinoxalin-11-one oxime]
[1]; [4]
  NF-κB/AP-1 IC50: did not inhibit
[2]
  IL-6 IC50: did not inhibit

## O=C1c2ccccc2-n2c1nc1ccccc1c2=O [Trp, tryptanthrin, reference compound]
[1]
  inhibition of LPS-induced NF-κB/AP-1 activity: did not inhibit
[2]
  inhibition of LPS-induced IL-6 production: did not inhibit
JNK3
  JNK3 Kd: inactive
JNK2
  JNK2 Kd: inactive

## O=C(O/N=C1\c2ccccc2-c2nc3ccccc3nc21)c1ccco1 [IQ-3]
TRKA
  binding to TRK-A: did not bind

## O=C1c2ccccc2-c2nc3ccncc3nc21 [compound 5, 10H-Indeno[1,2-b]pyrido[3,4-e]pyrazin-10-one]
[1]
  inhibition of LPS-induced NF-κB/AP-1 activity: did not inhibit
[2]
  inhibition of LPS-induced IL-6 production: did not inhibit

## [Na+].[O-]/N=C1/c2ccccc2-c2nc3ccc(C(F)(F)F)cc3nc21 [6h, 8-Trifluoromethyl-11H-indeno[2,3-b]quinoxalin-11-one oxime]
[1]; [4]
  NF-κB/AP-1 IC50: did not inhibit
[2]
  IL-6 IC50: did not inhibit

## O/N=C1\c2ccccc2-c2nc3ccccc3nc21 [IQ-1, 11H-indeno[1,2-b]quinoxalin-11-one oxime]
Solubility in DMSO
  solubility: ~10 mM (≈ 2470 µg/mL)
TRKA
  binding to TRK-A: did not bind

## O=C1c2ccccc2-c2nc3ncccc3nc21 [3a, 6H-Indeno[1,2-b]pyrido[3,2-e]pyrazin-6-one]
[1]
  inhibition of LPS-induced NF-κB/AP-1 activity: did not inhibit
[2]
  inhibition of LPS-induced IL-6 production: did not inhibit

## anthra[1–9-cd]pyrazol-6(2H)-one [SP600125, reference compound]
[1]; read-out: NF-κB/AP-1 IC50, THP-1Blue cells, 250 ng/ml LPS, 24 h, N.A. = no inhibition at concentrations <40 µM
  IC50: 3.4 ± 0.5 µM

## CCOC(=O)CO/N=C1\c2ccccc2-c2nc3ccccc3nc21 [10c, 11H-Indeno[1,2-b]quinoxalin-11-one O-(O-ethylcarboxymethyl) oxime]
[3]
  inhibition of c-Jun phosphorylation: inhibited c-Jun phosphorylation
